In article PMC6150246, “Design, Synthesis and Preliminary Biological Evaluation of Novel Benzyl Sulfoxide 2-Indolinone Derivatives as Anticancer Agents” (Molecules : A Journal of Synthetic Chemistry and Natural …, 2017):

Key:
[1] = molecular target: tyrosine kinase; experiment: Tyrosine kinase inhibitory activity assay (self-made ELISA kit); assay type: biochemical; conditions: for IC50: tyrosine kinase tissue extract, 37 °C 30 min; for tyrosine kinase inhibitory activity, in words: Indo 5 as reference
Procedure: The 16 designed compounds were first evaluated for tyrosine kinase inhibitory activity using ELISA assay. Indo 5 was used as a reference compound. The kit was self-made and is a very effective and economical method for preliminary tyrosine kinase inhibitory activity evaluation.
The tyrosine kinase inhibitory activity assay was performed as described in the literature. Details of the experimental procedures are presented in Supplementary Materials associated with this article. The IC50 was calculated using GraphPad Prism Software (GraphPad Prism 5, La Jolla, CA, USA). For each concentration, at least three wells were performed to calculate the average parameter.
100μL to each well. The plate was covered with its lid, and incubated at 4℃ overnight (10-12 hours). Then it was washed with 200μL elution buffer once, and dried at 37℃ for 2 h. After that, it was washed with 10mM PBS once, dried at room temperature, and then stored at 4℃ […]
2.1.5. Groups: Blank control: 60μL 1×tyrosine kinase buffer + 50μL 1×tyrosine kinase buffer containing ATP; Negative control: 10μL 1×tyrosine kinase buffer + 50μL 1×tyrosine kinase buffer containing tissue extract + 50μL 1×tyrosine kinase buffer containing ATP; Positive control: 10μL 1×tyrosine kinase buffer containing L029 + 50μL 1×tyrosine kinase buffer containing tissue extract + 50μL 1×tyrosine kinase buffer containing ATP; Vehicle control: 10μL 1×tyrosine kinase buffer containing DMSO + 50μL 1×tyrosine kinase buffer containing tissue extract + 50μL 1×tyrosine kinase buffer containing ATP; Compounds to be screened: 10μL 1×tyrosine kinase buffer containing compounds to be tested + 50μL 1× tyrosine kinase buffer containing tissue extract + 50μL 1×tyrosine kinase buffer containing ATP. (First, L029 and the compounds were allowed to interact with the tyrosine kinase tissue extract at room temperature for 10 min in advance, and did the same to the Blank control and the Vehicle control, then 50μL 1×tyrosine kinase buffer containing ATP was added to […]
2.1.6. Tyrosine kinase inhibitory activity assay: 1×tyrosine kinase buffer was prepared by evenly mixing 1 mL 10× tyrosine kinase buffer with 9 mL DDW. The tissue extract was diluted with 1×tyrosine kinase buffer appropriately, mixed with it gently and evenly, and placed on ice. ATP stock solution was mixed with 1×tyrosine kinase buffer at the final concentration of 3mM , and placed on ice. The microplate was added in respective wells with the groups formulated as above, covered with the lid, and incubated at 37℃ for 30 min. The microplate was washed with 200μL elution buffer and tapped until the residual buffer was removed, and this procedure was repeated for five times. To each well, 100μL antibody diluent (antibody elution buffer diluted at a ratio of 1:2000) was added. The microplate was covered with the lid, and incubated at room temperature for 30 min. OPD solution was prepared by addition of 4 mg OPD into a mixture of 4.86 mL 0.1 mol/L citric acid solution and 5.14 mL 0.2 mol/L Na2HPO4 solution, followed by addition of 50μL 30% H202 to allow for complete dissolution, and then was protected from light. The antibody solution was […]
removed. The microplate was washed with 200μL elution buffer and tapped until the residual buffer was removed, and this procedure was repeated for five times. 100μL freshly prepared OPD was added, and reacted at room temperature light tight for precisely 7 min. Negative […]
100μL 2.5 N H2SO4 was added to terminate the reaction. OD
2.1.7. Sample screening: Samples were screened preliminarily by using triplicate assay. The effect of the samples on tyrosine kinase inhibitory activity was tested, and the inhibition rate was calculated. Inhibition rate (%)=(ODnegative control – ODsample) / (ODnegative control* – ODblank) × 100%; *While calculating inhibition rate of positive drugs, ODnegative control in the equation was replaced with ODvehicle control to exclude the influence of DMSO on tyrosine kinase activity. […]
2. S. Praveen Kumar, Jiri Gut, Rita C. […]

[2] = tested on: human breast carcinoma cell line MCF-7; experiment: MTS cytotoxicity assay, MCF-7; assay type: cell-based
From the text: (§1) To investigate the relationship between anticancer activity and tyrosine kinase inhibitory activity, these compounds were further evaluated for in vitro cytotoxicity against five cancer cell lines (human cervical carcinoma cell line HeLa, human breast carcinoma cell line MCF-7, human liver carcinoma cell line HepG2, human tongue carcinoma cell line SCC-15, and human lung carcinoma A549) using MTS assay. Indo 5 was also used as a reference compound.
(§2) The five types of human cancer cell lines (HeLa, HepG2, MCF-7, SCC-15, and A549) were cultured aseptically using Dulbecco’s modified Eagle’s medium (DMEM) supplemented with 10% (v/v) fetal bovine serum (FBS) and penicillin (100 units mL^−1)/streptomycin ([…]), at pH 7.2 and 5% CO2 humidified atmosphere at 37 °C. After attaining 80% confluence, the cells were trypsinized with 0.25 trypsin–EDTA and diluted with media to a fixed number of cells.
(§3) Cytotoxic activity was assessed using the standard MTS method by using triplicate assay. The cells were seeded into 96-well plates containing the medium at the density of 4000–6000 cells/mL (100 μL/well). The compounds were dissolved in DMSO to the concentration of 100 mM and diluted in a culture medium to the concentrations needed. After 24 h, the cultured cells were treated with concentrations of synthesized compounds (3.125 μM to 100 μM for tumor cells) for 48 h. After 48 h of incubation, the supernatant was replaced by fresh medium (100 μL/well) and 10 μL MTS reagent ([3-(4,5-dimethylthiazol-2-yl)-5-(3-carboxymethoxyphenyl)-2-(4-sulfophenyl)-2H-tetrazolium, inner salt]) was added to each well. The plate was further incubated for 3 h at 37 °C in 5% CO2. The optical absorbance in individual wells was determined at 492 nm using a microplate reader. The inhibition rates were calculated by the following formula: Inhibition rate (%) = (ODnegative control − ODsample)/(ODnegative control − ODblank) × 100%
(§4) IC50 was calculated using GraphPad Prism Software (GraphPad Prism 5, La Jolla, CA, USA). For each concentration, at least three wells were performed to calculate the average parameter.

[3] = tested on: human cervical carcinoma cell line HeLa; experiment: MTS cytotoxicity assay, HeLa; assay type: cell-based; conditions: for IC50: 48 h treatment; for activity against the HeLa cell line, in words: Indo 5 as reference
From the text: as §1, §2, §3, §4

[4] = tested on: human tongue carcinoma cell line SCC-15; experiment: MTS cytotoxicity assay, SCC-15; assay type: cell-based
From the text: as §1, §2, §3, §4

[5] = tested on: human lung carcinoma A549; experiment: MTS cytotoxicity assay, A549; assay type: cell-based
From the text: as §1, §2, §3, §4

[6] = tested on: human liver carcinoma cell line HepG2; experiment: MTS cytotoxicity assay, HepG2; assay type: cell-based
From the text: as §1, §2, §3, §4

[7] = Homo sapiens, MCF7, 48 h treatment
[8] = Homo sapiens, SCC-15, 48 h treatment
[9] = Homo sapiens, A549, 48 h treatment
[10] = Homo sapiens, HepG2, 48 h treatment

Compound	IC50 [1] [µM]	melting point [°C]	tyrosine kinase inhibitory activity, in words [1]	activity against the MCF-7 cell line, in words [2]	IC50 [2, 7] [µM]	IC50 ([3]; Homo sapiens, HeLa) [µM]	activity against the HeLa cell line, in words [3]	IC50 [4, 8] [µM]	IC50 [5, 9] [µM]	IC50 [6, 10] [µM]	activity against the HepG2 cell line, in words [6]	IC50 ([2]; 48 h treatment) [µM]	IC50 [3] [µM]	IC50 ([4]; 48 h treatment) [µM]	IC50 ([5]; 48 h treatment) [µM]	IC50 ([6]; 48 h treatment) [µM]
O=C1Nc2ccccc2/C1=C/[S+]([O-])Cc1ccc(F)cc1 (stereo not drawn) [Compound 6d, (Z)-3-(((4-Fluorobenzyl)sulfinyl)methylene)indolin-2-one]	9.3 ± 0.47	193 to 194	–	–	49.12 ± 0.29	25 ± 0.68	–	65 ± 1.47	90.3 ± 2.14	36.2 ± 0.53	considerable cytotoxic activity	–	–	–	–	–
O=C1Nc2ccccc2/C1=C/[S+]([O-])Cc1ccc(Cl)cc1 (stereo not drawn) [Compound 6g, (Z)-3-(((4-Chlorobenzyl)sulfinyl)methylene)indolin-2-one]	3.3 ± 0.03	193 to 195	–	–	92.6 ± 0.97	40.9 ± 0.88	–	> 100	> 100	75.35 ± 0.72	–	–	–	–	–	–
COc1cccc(C[S+]([O-])/C=C2\C(=O)Nc3ccccc32)c1 (stereo not drawn) [Compound 6k, (Z)-3-(((3-Methoxybenzyl)sulfinyl)methylene)indolin-2-one]	2.23 ± 0.14	181 to 182	–	–	59.1 ± 37	22.7 ± 0.64	–	86.7 ± 5.16	62.3 ± 2	49.4 ± 1.33	–	–	–	–	–	–
Cc1ccc(C[S+]([O-])/C=C2\C(=O)Nc3ccccc32)cc1 (stereo not drawn) [Compound 6n, (Z)-3-(((4-Methylbenzyl)sulfinyl)methylene)indolin-2-one]	4.39 ± 0.23	186 to 188	–	–	55.1 ± 1.51	27.8 ± 0.78	–	90.5 ± 2.32	59.6 ± 0.97	59 ± 0.97	–	–	–	–	–	–
O=C1Nc2ccc(Br)cc2/C1=C/[S+]([O-])Cc1ccccc1F (stereo not drawn) [Compound 6p, (Z)-5-Bromo-3-(((2-fluorobenzyl)sulfinyl)methylene)indolin-2-one]	7.93 ± 0.2	208 to 209	weak tyrosine inhibitory activity	–	76.4 ± 1.5	19.8 ± 0.25	–	> 100	> 100	> 100	–	–	–	–	–	–
Cc1ccccc1NS(=O)(=O)c1ccc2c(c1)/C(=C/c1nc3ccccc3[nH]1)C(=O)N2 [Indo 5, reference compound]	11.6 ± 0.79	–	–	–	–	–	–	–	–	–	–	24.2 ± 0.49	19.6 ± 0.46	28.2 ± 1.08	29.16 ± 0.29	22.2 ± 0.41

Further lines, with some results ahead:

IC50 [1] [µM]	melting point [°C]	tyrosine kinase inhibitory activity, in words [1]	Compound	activity against the MCF-7 cell line, in words [2]	IC50 [2, 7] [µM]	IC50 ([3]; Homo sapiens, HeLa) [µM]	activity against the HeLa cell line, in words [3]	IC50 [4, 8] [µM]	IC50 [5, 9] [µM]	IC50 [6, 10] [µM]	activity against the HepG2 cell line, in words [6]	IC50 ([2]; 48 h treatment) [µM]	IC50 [3] [µM]	IC50 ([4]; 48 h treatment) [µM]	IC50 ([5]; 48 h treatment) [µM]	IC50 ([6]; 48 h treatment) [µM]
3.16 ± 0.31	191 to 192	–	O=C1Nc2ccccc2/C1=C/[S+]([O-])Cc1ccccc1 (stereo not drawn) [Compound 6a, (Z)-3-((Benzylsulfinyl)methylene)indolin-2-one]	good antitumor activity	35.2 ± 1.16	11.2 ± 0.42	stronger activity than Indo 5	58.9 ± 0.75	> 100	52.1 ± 0.94	–	–	–	–	–	–
3.74 ± 0.19	183 to 184	–	O=C1Nc2ccccc2/C1=C/[S+]([O-])Cc1ccccc1F (stereo not drawn) [Compound 6b, (Z)-3-(((2-Fluorobenzyl)sulfinyl)methylene)indolin-2-one]	–	49.1 ± 1.08	14 ± 0.27	stronger activity than Indo 5	> 100	> 100	47.8 ± 1.47	–	–	–	–	–	–
9.32 ± 0.66	186 to 187	–	O=C1Nc2ccccc2/C1=C/[S+]([O-])Cc1cccc(F)c1 (stereo not drawn) [Compound 6c, (Z)-3-(((3-Fluorobenzyl)sulfinyl)methylene)indolin-2-one]	good antitumor activity	31.5 ± 0.82	24.4 ± 0.54	–	49.9 ± 0.93	> 100	42 ± 0.7	–	–	–	–	–	–
5.09 ± 0.12	202 to 203	–	O=C1Nc2ccccc2/C1=C/[S+]([O-])Cc1ccccc1Cl (stereo not drawn) [Compound 6e, (Z)-3-(((2-Chlorobenzyl)sulfinyl)methylene)indolin-2-one]	–	> 100	70.9 ± 1.17	–	> 100	> 100	96.83 ± 0.95	–	–	–	–	–	–
5.96 ± 0.14	192 to 194	–	O=C1Nc2ccccc2/C1=C/[S+]([O-])Cc1cccc(Cl)c1 (stereo not drawn) [Compound 6f, (Z)-3-(((3-Chlorobenzyl)sulfinyl)methylene)indolin-2-one]	–	93 ± 1.5	60.3 ± 1.98	–	96.8 ± 3.76	> 100	86.5 ± 1.15	–	–	–	–	–	–
3.52 ± 0.15	198 to 199	–	O=C1Nc2ccccc2/C1=C/[S+]([O-])Cc1ccccc1Br (stereo not drawn) [Compound 6h, (Z)-3-(((2-Bromobenzyl)sulfinyl)methylene)indolin-2-one]	–	> 100	79.9 ± 1.57	–	> 100	> 100	98.3 ± 2.04	–	–	–	–	–	–
3.32 ± 0.19	193 to 194	–	O=C1Nc2ccccc2/C1=C/[S+]([O-])Cc1cccc(Br)c1 (stereo not drawn) [Compound 6i, (Z)-3-(((3-Bromobenzyl)sulfinyl)methylene)indolin-2-one]	–	75.1 ± 1.93	48.42 ± 0.14	–	82.1 ± 3.34	64.9 ± 1.57	71.8 ± 2.18	–	–	–	–	–	–
16.02 ± 0.05	198 to 199	weak tyrosine inhibitory activity	Cc1ccccc1C[S+]([O-])/C=C1\C(=O)Nc2ccccc21 (stereo not drawn) [Compound 6l, (Z)-3-(((2-Methylbenzyl)sulfinyl)methylene)indolin-2-one]	–	81.6 ± 2.62	> 100	–	> 100	> 100	> 100	–	–	–	–	–	–
3.85 ± 0.09	174 to 175	–	Cc1cccc(C[S+]([O-])/C=C2\C(=O)Nc3ccccc32)c1 (stereo not drawn) [Compound 6m, (Z)-3-(((3-Methylbenzyl)sulfinyl)methylene)indolin-2-one]	–	41.4 ± 2.2	27 ± 1.2	–	50.3 ± 1.51	79.32 ± 0.79	36 ± 2.13	–	–	–	–	–	–
